We go through three molecules from ChEMBL document CHEMBL1146356, “Lactotriaose-containing carbosilane dendrimers: syntheses and lectin-binding activities” (Bioorg Med Chem, 2007).

Experiment [1] relates to Triticum aestivum. Kind of experiment: Binding affinity to wheat germ agglutinin relative to Monovalent.
Experiment [2] has as its system Triticum aestivum. Put plainly: Binding affinity to wheat germ agglutinin.

With `CC(=O)N[C@H]1[C@H](O[C@H]2[C@@H](O)[C@@H](CO)O[C@@H](O[C@@H]3[C@@H](O)[C@H](O)C(OCCCCCSCCC[Si](CCCSCCCCCOC4O[C@@H](CO)[C@H](O[C@@H]5O[C@H](CO)[C@H](O)[C@H](O[C@@H]6O[C@H](CO)[C@@H](O)[C@H](O)[C@H]6NC(C)=O)[C@H]5O)[C@@H](O)[C@@H]4O)(CCCSCCCCCOC4O[C@@H](CO)[C@H](O[C@@H]5O[C@H](CO)[C@H](O)[C@H](O[C@@H]6O[C@H](CO)[C@@H](O)[C@H](O)[C@H]6NC(C)=O)[C@H]5O)[C@@H](O)[C@@H]4O)CCC[Si](C)(C)CCC[Si](CCCSCCCCCOC4O[C@@H](CO)[C@H](O[C@@H]5O[C@H](CO)[C@H](O)[C@H](O[C@@H]6O[C@H](CO)[C@@H](O)[C@H](O)[C@H]6NC(C)=O)[C@H]5O)[C@@H](O)[C@@H]4O)(CCCSCCCCCOC4O[C@@H](CO)[C@H](O[C@@H]5O[C@H](CO)[C@H](O)[C@H](O[C@@H]6O[C@H](CO)[C@@H](O)[C@H](O)[C@H]6NC(C)=O)[C@H]5O)[C@@H](O)[C@@H]4O)CCCSCCCCCOC4O[C@@H](CO)[C@H](O[C@@H]5O[C@H](CO)[C@H](O)[C@H](O[C@@H]6O[C@H](CO)[C@@H](O)[C@H](O)[C@H]6NC(C)=O)[C@H]5O)[C@@H](O)[C@@H]4O)O[C@H]3CO)[C@@H]2O)O[C@H](CO)[C@@H](O)[C@@H]1O` (stereo not given in full), the Activity in the experiment with Triticum aestivum [1] was found to be 2500. Further, the Ka with Triticum aestivum [2] is 2.8 10^6/M.

For the molecule `CC(=O)N[C@H]1[C@H](O[C@H]2[C@@H](O)[C@@H](CO)O[C@@H](O[C@@H]3[C@@H](O)[C@H](O)C(OCCCCCSCCC[Si](CCCSCCCCCOC4O[C@@H](CO)[C@H](O[C@@H]5O[C@H](CO)[C@H](O)[C@H](O[C@@H]6O[C@H](CO)[C@@H](O)[C@H](O)[C@H]6NC(C)=O)[C@H]5O)[C@@H](O)[C@@H]4O)(CCCSCCCCCOC4O[C@@H](CO)[C@H](O[C@@H]5O[C@H](CO)[C@H](O)[C@H](O[C@@H]6O[C@H](CO)[C@@H](O)[C@H](O)[C@H]6NC(C)=O)[C@H]5O)[C@@H](O)[C@@H]4O)CCC[Si](CCCSCCCCCOC4O[C@@H](CO)[C@H](O[C@@H]5O[C@H](CO)[C@H](O)[C@H](O[C@@H]6O[C@H](CO)[C@@H](O)[C@H](O)[C@H]6NC(C)=O)[C@H]5O)[C@@H](O)[C@@H]4O)(CCCSCCCCCOC4O[C@@H](CO)[C@H](O[C@@H]5O[C@H](CO)[C@H](O)[C@H](O[C@@H]6O[C@H](CO)[C@@H](O)[C@H](O)[C@H]6NC(C)=O)[C@H]5O)[C@@H](O)[C@@H]4O)CCC[Si](CCSCCCCCOC4O[C@@H](CO)[C@H](O[C@@H]5O[C@H](CO)[C@H](O)[C@H](O[C@@H]6O[C@H](CO)[C@@H](O)[C@H](O)[C@H]6NC(C)=O)[C@H]5O)[C@@H](O)[C@@H]4O)(CCSCCCCCOC4O[C@@H](CO)[C@H](O[C@@H]5O[C@H](CO)[C@H](O)[C@H](O[C@@H]6O[C@H](CO)[C@@H](O)[C@H](O)[C@H]6NC(C)=O)[C@H]5O)[C@@H](O)[C@@H]4O)CCSCCCCCOC4O[C@@H](CO)[C@H](O[C@@H]5O[C@H](CO)[C@H](O)[C@H](O[C@@H]6O[C@H](CO)[C@@H](O)[C@H](O)[C@H]6NC(C)=O)[C@H]5O)[C@@H](O)[C@@H]4O)O[C@H]3CO)[C@@H]2O)O[C@H](CO)[C@@H](O)[C@@H]1O` (stereo not given in full), in the experiment on Triticum aestivum [1], the Activity stood at 1200. Also, the Ka in the experiment on Triticum aestivum [2] is 1.3 10^6/M.

Take `CC(=O)N[C@H]1[C@H](O[C@H]2[C@@H](O)[C@@H](CO)O[C@@H](O[C@@H]3[C@@H](O)[C@H](O)C(O)O[C@H]3CO)[C@@H]2O)O[C@H](CO)[C@@H](O)[C@@H]1O` (stereo not given in full): the Ka with Triticum aestivum [2] was 1.1 10^3/M.
